# Reference: patent US20070037782A1, “Therapeutic agent for ageing macular degeneration” (MEIJI DAIRIES CORPORATION, priority 2003, published 2007)
# System: rat model of laser-induced choroidal neovascularization
# Assay: Inhibitory effect on choroidal neovascularization (CNV) after subconjunctival administration, rat model of laser-induced CNV
# Format: in vivo, Rats (Brown Norway)
# Settings: for incidence of CNV relative to that of the base group: single subconjunctival administration, 14 days after photocoagulation, mean±S.E., P<0.01 vs base group
# Protocol: An inhibitory effect on choroidal neovascularization caused by the subconjunctival administration of FMPA was assessed using a rat model of laser-induced choroidal neovascularization (which may hereinafter be abbreviated as CNV).
# Rats (Brown Norway, 8 week old, male) were given general anesthesia and their pupils were dilated with one drop of commercially available eye-drops (“Mydrin P”, trade name; product of Santen Pharmaceutical Co. Ltd.) They were then subjected to photocoagulation by a krypton laser photocoagulation apparatus (“MC-7000L”, manufactured by NIDEK Co., Ltd.). The photocoagulation was performed sporadically at 8 sites while focusing on the deep layer of the retina and avoiding laser irradiation to thick retinal blood vessels (coagulation conditions: spot size of 100μm, output of 100 mW and coagulation time for 0.1 second). This photocoagulation was given to both eyes. After photocoagulation, the sites exposed to laser were confirmed by fundus photography. These rats were bred for 14 days, whereby CNV rat models were produced. […]
# Fourteen days after photocoagulation, 0.1 mL of 10 wt.% fluorescein was injected through the caudal vein and based on the photograph taken by a fluorescein fundus camera (“Pro III”, product of Kowa Company Ltd), presence or absence of CNV was observed. […] A ratio of the number of positive sites to the number of all the exposed sites (8 sites) of eyeballs was calculated and the incidence of CNV of each administration group was calculated when the CNV incidence of the base group (Group 1) was assumed to be 1.00. […]
# The incidence of CNV was expressed as a mean value±S.E. Comparison between the base group (Group 1) and each FMPA group (Groups 2 and 3) was made using analysis of variance, followed by Dunnett multiple comparison tests, while comparison between the base group and Comparative medicament group (Group 4) or comparison between the FMPA group (Group 2) and Comparative medicament group was made using t-test. […]
compound,measurement,setting,value
"CC(=O)O[C@]1(C(C)=O)CC[C@H]2[C@@H]3C[C@H](C)C4=CC(=O)CC[C@]4(C)[C@@]3(F)CC[C@@]21C [FMPA, 9α-fluoromedroxyprogesterone acetate]",incidence of CNV relative to that of the base group,1000 μg/eye,62.2±6.7%
same,incidence of CNV relative to that of the base group,3000 μg/eye,48.9±6.5%
same,CNV inhibitory effect (in words),"1000 and 3000 μg/eye, subconjunctival, rat",dose-dependent CNV inhibitory effect
